The values that follow come from publication PMC10889360, “Therapeutic targeting Tudor domains in leukemia via CRISPR-Scan Assisted Drug Discovery” (Science Advances, 2024).

As usually defined, the viability is a read-out of living cells in per cent, often relative to untreated cells.

In one series the test system is MV4-11. Kind of series: cells. Details: species or system MV4-11; U251. Conditions: for viability at 10 µM: Homo sapiens, read-out: % viability; for % viability: 10 µM. How it is done:
(§1) Compound information and source are listed in data S9. For Cpd_DC60, the initial small scale was obtained from the NCI Developmental Therapeutics Program (NCI/DTP) Open Chemicals Repository. Additional Cpd_DC60 was then custom synthesized by Ambinter (Orléans, France). MV4-11 cells were seeded at 20,000 cells per well, and U251 cells were seeded at 10,000 cells per well. Cells were cultured in 96-well plates at 100 μl per well and replated with fresh medium and compound every 3 days for up to 9 days. At each time point, 15 μl of the CellTiter-Glo 2.0 assay reagent (G9242, Promega) and 20 μl of resuspended cells were mixed in white flat-bottom 96-well plates (353296, Corning), and subsequently, the resultant luminescence was measured using an Infinite M1000 Pro plate reader (Tecan Trading AG, Switzerland). The relative CellTiter Glo signal was normalized to the control condition (DMSO) at each reading time point. Next, we examined the response of SGF29-dependent MV4-11 leukemia cells and the SGF29-independent U251 glioblastoma cells (see Fig. 1H) to these 190 candidate compounds (plus 15 reference compounds) using a CellTiter Glo screen. […] Compared to the pan-cancer inhibitors I-BET151 [inhibits the bromodomain of Bromodomain and Extra-Terminal motif (BET)] ([36]) and JQ1 (blocks BRD4 bromodomain) ([10]), we observed several known leukemia-targeting compounds (EPZ-5676, OICR-9429, A-485, and A-366) ([37]–[40]) within the 19 MV4-11 selective inhibitors (detailed in fig. S7A). On the basis of the selective killing against MV4-11 (Δ Score, i.e., differential CellTiter Glo % between MV4-11 and U251 on day 9), we then chose the top six ranked candidate compounds (Cpd_DC60, 201, 11, 157, 182, and 21) for further investigation (fig. S7B). […] Identification of SGF29 lead inhibitor by CRISPR-SADD workflow. (A) Schematic outline of the Sgf29 high-density CRISPR tiling scan in MLL-AF9-Cas9^+ cells. (B) Two-dimensional annotation of Sgf29 CRISPR-Scan. The blue line indicates the smoothened model of the CRISPR-Scan score derived from 147 sgRNAs (dots) targeting the coding exons of Sgf29. The median NCS scores of the positive control (red dotted line; defined as −1.0) and negative control (green dotted line; defined as 0.0) sgRNAs are highlighted. The blue dashed box indicates the SGF29-TTD domain. (C) Three-dimensional annotation Sgf29 CRISPR-Scan score relative to an x-ray crystal structural model of human SGF29-TTD (PDB ID: 3ME9). The CRISPR hypersensitive (red) aromatic cage of SGF29 Tudor_2 domain is highlighted. (D) Docking box (cube) defined by overlapping the PrankWeb predicted ligandable protein surface (surface contour marked by the dotted pink-line) with the CRISPR hypersensitive region of SGF29-TTD (red areas). (E) Heatmap showing the relative CellTiter Glo signal [% to dimethyl sulfoxide (DMSO) control] of MV4-11 and U251 cells incubated with 205 selected compounds (10 μM) for 3, 6, and 9 days. The effective killing was defined as less than 10% relative CellTiter Glo signal on day 9. Four clusters of compounds are identified, including the U251 selective (7 cpds), noneffective (157 cpds), general toxic (22 cpds), and MV4-11 selective (19 cpds) groups. (F and G) Western blot of (F) MOLM13 cells and (G) MV4-11 cells incubated with Cpd_DC60 (20 μM) for 48 hours. (H) Effect of Cpd_DC60 on the SGF29-TTD/H3K4me3 AlphaScreen signal. (I) Left: Docking simulation model of SGF29-TTD (colored by NCS) interacts with Cpd_DC60 (yellow). Right: Overlap of SGF29-TTD/H3K4me3 (cyan) cocrystal structure (PDB ID: 3ME9) with the predicted Cpd_DC60 (yellow) binding post on SGF29-TTD. The “aromatic cage” that consists of Y238, Y245, and F264 is indicated. a.a., amino acid. IC50, median inhibitory concentration.

For a further series, the system named is U251 (U-251). In words: cells. Details: species or system MV4-11; U251. Conditions: for viability at 10 µM: Homo sapiens, read-out: % viability; for % viability: 10 µM. How it is done: as §1
In series [1] the target is T1, recombinant His6-tagged SGF29 tandem Tudor domain (SGF29-TTD), residues Met114 to Lys293 (human, UniProt Q96ES7 114-293).
T1 construct: SAGA-associated factor 29 (SGF29), human, tandem Tudor domain, residues Met114 to Lys293, UniProt Q96ES7; 22.9 kDa with the tag; Codon-optimised cDNA with synonymous changes only; No tag cleavage is described; the chain is detected by the nickel chelate AlphaScreen beads; The forward primer carries the end of a TEV site (ENLYFQS) from the vector before Met114; also called SGF29_Tudor 2; …
T1 sequence (looked up): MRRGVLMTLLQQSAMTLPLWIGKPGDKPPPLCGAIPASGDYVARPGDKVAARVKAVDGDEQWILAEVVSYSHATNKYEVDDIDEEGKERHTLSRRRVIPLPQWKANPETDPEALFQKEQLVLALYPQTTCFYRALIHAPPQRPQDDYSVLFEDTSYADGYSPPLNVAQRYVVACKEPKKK
In words: AlphaScreen or HTRF; AlphaScreen Histidine (Nickel Chelate) Detection Kit; 75 nM SGF29-TTD, 150 nM H3(1-18)K4me3-bio, 0.8% DMSO, acceptor/donor beads 20 ug/ml; 50 mM Hepes, 100 mM NaCl, 5 mM TCEP, pH 7.4; 25 C, 3 hours; signal blocked by the small molecule Cpd_DC60. To be noted: both partners purified. On the technique in general: In Alpha technology, singlet oxygen from a donor bead excites a nearby acceptor bead.

Counter-ions that a name gives are not always drawn. Like-named read-outs stand apart in the source and are kept apart here. No end group written: not given here. Me3 = trimethyl (trimethyl-lysine)

As for `Cc1ccc2nc(-c3ccc(N4C(=O)C5C6c7ccccc7C(c7ccccc76)C5C4=O)cc3)sc2c1` (stereo not shown) [compound 23, ZINC000008935041], the viability at 10 µM amounted to 41.6% in the series with MV4-11 (MV4-11, 72 h); 14.8% in the series with MV4-11 (MV4-11, 144 h); 4.43% in the series on MV4-11 (MV4-11, 216 h); 87.4% in the series on U251 (U-251) (U-251, 72 h); 48.7% in the series with U251 (U-251) (U-251, 144 h); 11% with U251 (U-251) (U-251, 216 h).
In the case of `COc1cc2c(cc1-c1c(C)noc1C)ncc1[nH]c(=O)n([C@H](C)c3ccccn3)c12` [compound 78, I-BET151], the viability at 10 µM worked out at 0.356% in the series on MV4-11 (MV4-11, 72 h); 0.218% in the series on MV4-11 (MV4-11, 144 h); 0.24% with MV4-11 (MV4-11, 216 h); 14.5% in the series with U251 (U-251) (U-251, 72 h); 0.804% in the series on U251 (U-251) (U-251, 144 h); 0.227% in the series on U251 (U-251) (U-251, 216 h).
For the molecule `CCC[C@H](NC(=O)[C@@H]1[C@H]2CCC[C@H]2CN1C(=O)[C@@H](NC(=O)[C@@H](NC(=O)c1cnccn1)C1CCCCC1)C(C)(C)C)C(=O)C(=O)NC1CC1` [compound 76, Telaprevir (VX-950)], the “% viability” value in the series with MV4-11 (day 3, 72 h) amounted to 12.16%; in the series with MV4-11 (day 6, 144 h), 1.882%; in the series with MV4-11 (day 9, 216 h), 0.2706%; with U251 (U-251) (day 3, 72 h) it was 49.36%; in the series on U251 (U-251) (day 6, 144 h), 17.7%; with U251 (U-251) (day 9, 216 h) it was 2.593%.
As for `CC(C)(C)NCCCNC(=O)c1cccc(Br)c1` [compound 31, UNC2170 trifluoroacetate], the viability at 10 µM in the series on MV4-11 (MV4-11, 72 h) was determined as 120%; with MV4-11 (MV4-11, 144 h) it was 93.1%; in the series on MV4-11 (MV4-11, 216 h) it was 125%; in the series with U251 (U-251) (U-251, 72 h), 111%; in the series with U251 (U-251) (U-251, 144 h), 110%; in the series with U251 (U-251) (U-251, 216 h), 106%.
Turning to `Nc1c(Br)cc([N+](=O)[O-])cc1Br` [compound 240, ZINC000001641734], the viability at 10 µM with MV4-11 (MV4-11, 72 h) came out at 95.7%; in the series with MV4-11 (MV4-11, 144 h), 86.7%; with MV4-11 (MV4-11, 216 h), 89%; in the series on U251 (U-251) (U-251, 72 h), 110%; with U251 (U-251) (U-251, 144 h) it was 106%; in the series on U251 (U-251) (U-251, 216 h), 115%.
As to `O=C(Cc1ccccc1)Nc1ccc2oc(-c3ccc4ccccc4c3)nc2c1` [compound 172, ZINC000001204199], the viability at 10 µM was 114% with MV4-11 (MV4-11, 72 h); 101% in the series on MV4-11 (MV4-11, 144 h); 78.6% in the series with MV4-11 (MV4-11, 216 h); 108% in the series with U251 (U-251) (U-251, 72 h); 107% in the series on U251 (U-251) (U-251, 144 h); 112% in the series on U251 (U-251) (U-251, 216 h).

B1: H3(1-18)K4me3-bio (biotinylated H3K4me3) peptide (peptide, UniProt P68431 2-19, looked up)
peptide: ARTK(Me3)QTARKSTGGKAPRK
modifications: also: biotin, position not given here
notes: histone H3, residues 1-18, trimethylated at lysine 4; source: synthetic peptide (Thermo Fisher Scientific)
With B1, in series [1], the binding result is given as “binds”.
